From patent US9233979B2, “Compounds that are ERK inhibitors” (Merck Sharp & Dohme Corp., priority 2012, dated 2016)

Biological target: phosphorylated active hERK2 enzyme (Homo sapiens (Human), UniProt P28482)
Assay: Active Human ERK2 (hERK2) Activity Assay (IMAP-FP)
Assay type: biochemical
Details: Table 6, 0.5 nM hERK2, 30 μM ATP, 10 point titration, read-out: AERK2 IC50
How it was run: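 IMAP fluorescence-polarization kinase assay: 0.5 nM activated hERK2 with 900 nM unlabeled plus 80 nM labeled peptide and 30 μM ATP, reacted 60 min. Quenched with IMAP beads in binding buffer with 24 mM NaCl; FP read after 60 min equilibration.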

Chain of phosphorylated active hERK2 enzyme (P28482 whole entry): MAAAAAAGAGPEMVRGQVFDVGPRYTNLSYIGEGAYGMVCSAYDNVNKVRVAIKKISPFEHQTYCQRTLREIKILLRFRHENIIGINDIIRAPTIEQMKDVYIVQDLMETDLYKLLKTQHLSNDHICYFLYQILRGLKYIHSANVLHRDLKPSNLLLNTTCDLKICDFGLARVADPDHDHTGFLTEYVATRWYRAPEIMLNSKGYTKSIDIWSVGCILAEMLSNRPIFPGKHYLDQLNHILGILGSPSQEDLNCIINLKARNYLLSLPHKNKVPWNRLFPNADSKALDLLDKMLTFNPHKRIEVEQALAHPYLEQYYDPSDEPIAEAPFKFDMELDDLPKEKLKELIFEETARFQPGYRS

| Structure (SMILES) | IC50 |
| --- | --- |
| C[C@@H](NC(=O)Nc1cc2[nH]nc(Nc3ccc(F)nc3)c2cn1)c1ccccc1 [Example 382, 1-{3-[(6-fluoropyridin-3-yl)amino]-1H-pyrazolo[4,3-c]-pyridin-6-yl}-3-[(1R)-1-phenylethyl]urea] | 72.1 nM |
| COC[C@@H](NC(=O)Nc1cc2[nH]nc(Nc3ccccc3C#N)c2cn1)c1ccccc1 [Example 383, 1-{3-[(2-cyanophenyl)amino]-1H-pyrazolo[4,3-c]pyridin-6-yl}-3-[(1S)-2-methoxy-1-phenylethyl]urea] | 2280 nM |
| COC(=O)Nc1n[nH]c2cc(NC(=O)N[C@@H](c3ccccc3)C3(O)CCC3)ncc12 [Example 385, methyl [6-({[(S)-(1-hydroxycyclo-butyl)(phenyl)-methyl]carbamoyl}amino)-1H-pyrazolo[4,3-c]-pyridin-3-yl]-carbamate] | 2 nM |
| COC(=O)Nc1n[nH]c2cc(NC(=O)N[C@@H](c3ccc(F)cc3)C3(O)CCC3)ncc12 [Example 386, methyl [6-({[(S)-(4-fluorophenyl)(1-hydroxycyclobutyl)methyl]carbamoyl}amino)-1H-pyrazolo[4,3-c]-pyridin-3-yl]-carbamate] | 0.4 nM |
| C[C@@H](O)[C@@H](NC(=O)Nc1cc2[nH]nc(N3CCc4ncsc4C3)c2cn1)c1ccccc1 [Example 387, 1-[3-(6,7-dihydro[1,3]-thiazolo[5,4-c]-pyridin-5(4H)-yl)-1H-pyrazolo[4,3-c]pyridin-6-yl]-3-[(1S,2R)-2-hydroxy-1-phenylpropyl]urea] | 0.5 nM |
| COC(=O)Nc1n[nH]c2cc(NC(=O)N[C@@H](c3ccc(F)cc3)C(C)(C)O)ncc12 [Example 390, methyl [6-({[(1S)-1-(4-fluorophenyl)-2-hydroxy-2-methylpropyl]-carbamoyl}amino)-1H-pyrazolo[4,3-c]pyridin-3-yl]-carbamate] | 0.5 nM |
| COC(=O)Nc1n[nH]c2cc(NC(=O)NC(c3ccc(Cl)c(Cl)c3)c3cnco3)ncc12 (stereo not drawn) [Example 392, methyl [6-({[(3,4-dichlorophenyl)(1,3-oxazol-5-yl)-methyl]carbamoyl}amino)-1H-pyrazolo[4,3-c]-pyridin-3-yl]-carbamate] | 2.6 nM |
| C[C@@H](O)[C@@H](NC(=O)Nc1cc2[nH]nc(N3CCc4nn(C)cc4C3)c2cn1)c1ccccc1 [Example 393, 1-[(1S,2R)-2-hydroxy-1-phenylpropyl]-3-(2′-methyl-2′,4′,6′,7′-tetrahydro-1H-3,5′-bipyrazolo[4,3-c]-pyridin-6-yl)urea] | 0.4 nM |
| O=C(Nc1cc2[nH]nc(NC(=O)N3CC(F)(F)C3)c2cn1)N[C@@H]1CCCOc2ccccc21 [Example 397, 3,3-difluoro-N-(6-{[(5R)-2,3,4,5-tetrahydro-1-benzoxepin-5-yl-carbamoyl]amino}-1H-pyrazolo[4,3-c]pyridin-3-yl)-azetidine-1-carboxamide] | 4.4 nM |
| CC(C)OC(=O)Nc1n[nH]c2cc(NC(=O)N[C@H](C)c3ccc(F)cc3)ncc12 [Example 398, 1-methylethyl [6-({[(1R)-1-(4-fluorophenyl)ethyl]carbamoyl}amino)-1H-pyrazolo[4,3-c]pyridin-3-yl]-carbamate] | 52.5 nM |
| C[C@@H](NC(=O)Nc1cc2[nH]nc(NC(=O)OC3CCOCC3)c2cn1)c1ccc(F)cc1 [Example 399, tetrahydro-2H-pyran-4-yl [6-({[(1R)-1-(4-fluorophenyl)ethyl]carbamoyl}amino)-1H-pyrazolo[4,3-c]pyridin-3-yl]-carbamate] | 19.7 nM |
| CC(C)(O)[C@@H](NC(=O)Nc1cc2[nH]nc(NC(=O)OC3CCOCC3)c2cn1)c1ccc(F)cc1 [Example 400, tetrahydro-2H-pyran-4-yl [6-({[(1S)-1-(4-fluorophenyl)-2-hydroxy-2-methylpropyl]-carbamoyl}amino)-1H-pyrazolo[4,3-c]pyridin-3-yl]-carbamate] | 1.6 nM |
| C[C@@H](NC(=O)Nc1cc2[nH]nc(NC(=O)OC3CCOC3)c2cn1)c1ccc(F)cc1 (stereo partly drawn) [Example 401, tetrahydrofuran-3-yl [6-({[(1R)-1-(4-fluorophenyl)ethyl]carbamoyl}amino)-1H-pyrazolo[4,3-c]pyridin-3-yl]-carbamate] | 15.3 nM |
| CC(C)OC(=O)Nc1n[nH]c2cc(NC(=O)N[C@@H](c3ccc(F)cc3)C(C)(C)O)ncc12 [Example 403, 1-methylethyl [6-({[(1S)-1-(4-fluorophenyl)-2-hydroxy-2-methyl-propyl]carbamoyl}amino)-1H-pyrazolo[4,3-c]-pyridin-3-yl]-carbamate] | 1.1 nM |
| C[C@@H](NC(=O)Nc1cc2[nH]nc(NC(=O)OCC(F)F)c2cn1)c1ccc(F)cc1 [Example 405, 2,2-difluoroethyl [6-({[(1R)-1-(4-fluorophenyl)ethyl]carbamoyl}amino)-1H-pyrazolo[4,3-c]pyridin-3-yl]-carbamate] | 21.6 nM |
| CC(C)(O)[C@@H](NC(=O)Nc1cc2[nH]nc(NC(=O)OCC(F)F)c2cn1)c1ccc(F)cc1 [Example 406, 2,2-difluoroethyl [6-({[(1S)-1-(4-fluorophenyl)-2-hydroxy-2-methyl-propyl]carbamoyl}amino)-1H-pyrazolo[4,3-c]-pyridin-3-yl]-carbamate] | 1.5 nM |
| CC(Nc1n[nH]c2cc(NC(=O)N[C@H](C)c3ccccc3)ncc12)C(F)(F)F (stereo partly drawn) [Example 407, 1-[(1R)-1-phenylethyl]-3-{3-[(2,2,2-trifluoro-1-methylethyl)amino]-1H-pyrazolo[4,3-c]pyridin-6-yl}urea] | 2.4 nM |
| C[C@@H](NC(=O)Nc1cc2[nH]nc(N3CCCC3=O)c2cn1)c1ccccc1 [Example 408, 1-[3-(2-oxopyrrolidin-1-yl)-1H-pyrazolo[4,3-c]-pyridin-6-yl]-3-[(1R)-1-phenylethyl]urea] | 101 nM |
| CCNc1n[nH]c2cc(NC(=O)N[C@@H]3CCC[C@H]3OC)ncc12 [Example 411, 1-[3-(ethylamino)-1H-pyrazolo[4,3-c]pyridin-6-yl]-3-[(1R,2R)-2-methoxy-cyclopentyl]urea] | 99.3 nM |
| CCNc1n[nH]c2cc(NC(=O)NC(C(=O)N(C)C)c3ccc(F)cc3)ncc12 (stereo not drawn) [Example 414, 2-({[3-(ethylamino)-1H-pyrazolo[4,3-c]-pyridin-6-yl]-carbamoyl}amino)-2-(4-fluorophenyl)-N,N-dimethyl-acetamide] | 413 nM |

Now from value to compound:

| IC50 | Structure (SMILES) |
| --- | --- |
| 9.4 nM | COC[C@@H](NC(=O)Nc1cc2[nH]nc(Nc3ccccc3F)c2cn1)c1ccccc1 [Example 384, 1-{3-[(2-fluoro-phenyl)amino]-1H-pyrazolo[4,3-c]-pyridin-6-yl}-3-[(1S)-2-methoxy-1-phenylethyl]urea] |
| 34.6 nM | C[C@H](O)[C@@H](NC(=O)Nc1cc2[nH]nc(N3CCc4ncsc4C3)c2cn1)c1ccccc1 [Example 388, 1-[3-(6,7-dihydro[1,3]-thiazolo[5,4-c]pyridin-5(4H)-yl)-1H-pyrazolo[4,3-c]-pyridin-6-yl]-3-[(1S,2S)-2-hydroxy-1-phenylpropyl]urea] |
| 0.4 nM | COC(=O)Nc1n[nH]c2cc(NC(=O)N[C@@H](c3ccccc3)C(C)(C)O)ncc12 [Example 389, methyl [6-({[(1S)-2-hydroxy-2-methyl-1-phenyl-propyl]carbamoyl}amino)-1H-pyrazolo[4,3-c]-pyridin-3-yl]-carbamate] |
| 0.4 nM | C[C@@H](NC(=O)Nc1cc2[nH]nc(N3CCc4nn(C)cc4C3)c2cn1)c1ccc(F)cc1 [Example 391, 1-[(1R)-1-(4-fluorophenyl)ethyl]-3-(2′-methyl-2′,4′,6′,7′-tetrahydro-1H-3,5′-bipyrazolo[4,3-c]-pyridin-6-yl)urea] |
| 0.3 nM | COC(=O)Nc1n[nH]c2cc(NC(=O)N[C@H]3c4ccccc4OCC[C@H]3O)ncc12 [Example 394, methyl [6-({[(4R,5S)-4-hydroxy-2,3,4,5-tetrahydro-1-benzoxepin-5-yl]-carbamoyl}amino)-1H-pyrazolo[4,3-c]pyridin-3-yl]-carbamate] |
| 0.6 nM | CC(=O)Nc1n[nH]c2cc(NC(=O)N[C@@H](c3ccc(F)cc3)C(C)(C)O)ncc12 [Example 395, N-[6-({[(1S)-1-(4-fluorophenyl)-2-hydroxy-2-methylpropyl]-carbamoyl}amino)-1H-pyrazolo[4,3-c]-pyridin-3-yl]-acetamide] |
| 0.3 nM | O=C(Nc1cc2[nH]nc(NC(=O)N3CC(F)(F)C3)c2cn1)N[C@H]1c2ccccc2OCC[C@H]1O [Example 396] |
| 2.9 nM | CC(C)(O)[C@@H](NC(=O)Nc1cc2[nH]nc(NC(=O)OC3CCOC3)c2cn1)c1ccc(F)cc1 (stereo partly drawn) [Example 402, tetrahydrofuran-3-yl [6-({[(1S)-1-(4-fluorophenyl)-2-hydroxy-2-methyl-propyl]carbamoyl}amino)-1H-pyrazolo[4,3-c]-pyridin-3-yl]-carbamate] |
| 5.3 nM | C[C@@H](NC(=O)Nc1cc2[nH]nc(NC(=O)OCCO)c2cn1)c1ccc(F)cc1 [Example 404, 2-hydroxyethyl [6-({[(1R)-1-(4-fluorophenyl)ethyl]carbamoyl}amino)-1H-pyrazolo[4,3-c]pyridin-3-yl]-carbamate] |
| 2.4 nM | C[C@@H](NC(=O)Nc1cc2[nH]nc(N3CCC(O)CC3)c2cn1)c1ccccc1 [Example 409, 1-[3-(4-hydroxypiperidin-1-yl)-1H-pyrazolo[4,3-c]-pyridin-6-yl]-3-[(1R)-1-phenylethyl]urea] |
| 1.2 nM | COC[C@@H](NC(=O)Nc1cc2[nH]nc(N3CCC(O)CC3)c2cn1)c1ccccc1 [Example 410, 1-[3-(4-hydroxypiperidin-1-yl)-1H-pyrazolo[4,3-c]-pyridin-6-yl]-3-[(1S)-2-methoxy-1-phenylethyl]urea] |
| 421 nM | CCNc1n[nH]c2cc(NC(=O)NC(C(=O)N(CC)CC)c3ccc(F)cc3)ncc12 (stereo not drawn) [Example 412, N,N-diethyl-2-({[3-(ethylamino)-1H-pyrazolo[4,3-c]-pyridin-6-yl]-carbamoyl}amino)-2-(4-fluoro-phenyl)acetamide] |
| 4.5 nM | COC1CCN(c2n[nH]c3cc(NC(=O)N[C@H](C)c4ccccc4)ncc23)CC1 [Example 413, 1-[3-(4-methoxypiperidin-1-yl)-1H-pyrazolo[4,3-c]-pyridin-6-yl]-3-[(1R)-1-phenylethyl]urea] |
